According to patent US20260034115A1, “YAP1 INHIBITORS” (H. LEE MOFFITT CANCER CENTER AND RESEARCH INSTITUTE, INC., priority 2021, published 2026):
Read-outs that look alike come from different tables or passages of the source.

Legend:
[1] = molecular target: Yap1:Oct4 interaction (Homo sapiens, UniProt P46937); test: Yap1:Oct4 interaction (in vitro binding assay); conditions: FIG. 1
[2] = system: PC9 cells; test: MTT IC50 on parental PC9 cells; assay type: cell-based
[3] = system: PC9-OSIMR cells; test: MTT IC50 on Osimertinib-resistant PC9 cells; assay type: cell-based
[4] = system: PC9luc cells; test: MTT IC50 on PC9 cells expressing a luciferase gene; assay type: cell-based
[5] = system: PC9luc-OSIMR cells; test: MTT IC50 on PC9-Osimertinib resistant cells expressing a luciferase gene; assay type: cell-based

Chain of Yap1:Oct4 interaction (P46937 whole entry): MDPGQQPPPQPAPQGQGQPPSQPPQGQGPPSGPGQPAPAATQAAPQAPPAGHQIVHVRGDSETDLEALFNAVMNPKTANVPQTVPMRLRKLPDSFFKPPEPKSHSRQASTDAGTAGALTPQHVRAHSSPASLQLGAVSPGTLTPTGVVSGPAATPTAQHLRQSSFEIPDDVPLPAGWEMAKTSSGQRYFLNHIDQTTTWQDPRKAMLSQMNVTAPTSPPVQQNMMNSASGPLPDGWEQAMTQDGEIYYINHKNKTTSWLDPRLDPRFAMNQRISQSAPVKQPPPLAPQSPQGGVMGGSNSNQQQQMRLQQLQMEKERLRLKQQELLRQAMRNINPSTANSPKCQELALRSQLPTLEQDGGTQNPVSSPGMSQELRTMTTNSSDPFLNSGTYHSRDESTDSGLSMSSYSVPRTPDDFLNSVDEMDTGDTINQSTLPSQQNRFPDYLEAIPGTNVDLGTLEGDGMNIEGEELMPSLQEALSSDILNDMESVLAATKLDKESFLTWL

## CCOc1ccc(CCCN2CCC(CC(=O)N[C@@H](Cc3ccc(OCc4ccccc4)cc3)C(=O)OC)CC2)cc1 [SR6-087]
[1]
  IC50: 510 ± 80 nM

## COC(=O)[C@H](Cc1ccc(OCc2ccccc2)cc1)NC(=O)CC1CCN(CCCc2ccc(F)c(C#N)c2)CC1 [SR6-170]
[1]
  IC50: 780 ± 150 nM

## COC(=O)[C@H](Cc1ccc(OC)cc1)NC(=O)CC1CCN(CCCc2cccc(F)c2)CC1 [SR7-067]
[2]; PC9, read-out: IC50 MTT
  IC50: > 40000 nM
[3]; PC9-OSIMR, read-out: IC50 MTT
  IC50: > 40000 nM
[4]
  IC50: > 40000 nM
[5]
  IC50: > 40000 nM
[1]
  IC50: 2560 nM

## CCOc1ccc(CCCN2CCC(CC(=O)Nc3ccc(OCc4ccccc4)cc3)CC2)cc1 [SR7-052]
[2]; PC9, read-out: IC50 MTT
  IC50: 1230 nM
[3]; PC9-OSIMR, read-out: IC50 MTT
  IC50: 5470 nM
[4]
  IC50: 1270 nM
[5]
  IC50: 4030 nM
[1]
  IC50: 445 nM

## COC(=O)[C@H](Cc1cccc(OC)c1)NC(=O)CC1CCN(CCC(C)(C)C)CC1 [SR7-055]
[1]
  IC50: > 40000 nM

## COC(=O)[C@H](Cn1cc(-c2ccccc2)cn1)NC(=O)CC1CCN(C(=O)CCc2cccc(F)c2)CC1 [SR6-096]
[1]
  IC50: 870 ± 320 nM

## COC(=O)[C@H](Cc1ccc(OCc2ccccc2)cc1)NC(=O)CC1CCN(CCCc2cccc(F)c2)CC1 [SR6-085]
[1]
  IC50: 750 ± 150 nM

## COC(=O)[C@H](Cc1cccc(OC)c1)NC(=O)CC1CCN(CCCc2ccc(Cl)c(Cl)c2)CC1 [SR7-045]
[1]
  IC50: 1450 nM

## COC(=O)[C@H](Cc1ccc(OCc2ccccc2)cn1)NC(=O)CC1CCN(C(=O)CCc2ccc(Cl)c(Cl)c2)CC1 [SR6-095]
[1]
  IC50: 1010 ± 260 nM

## O=C(CC1CCN(CCCc2cccc(F)c2)CC1)Nc1ccc(OCc2ccccc2)cc1 [SR7-057]
[1]
  IC50: 707 nM

## N#Cc1ccc(CCCN2CCC(CC(=O)Nc3ccc(OCc4ccccc4)cc3)CC2)cc1 [SR7-061]
[1]
  IC50: 1300 nM

## C=CC(=O)Nc1cc(Nc2nccc(-c3cn(C)c4ccccc34)n2)c(OC)cc1N(C)CCN(C)C [Osimertinib, reference compound]
[2]; Homo sapiens, PC-9, EGFR-mutant PC9 cells, read-out: IC50 for Osimertinib
  IC50: 16 nM
[2]; Homo sapiens, PC-9, PC9, read-out: IC50 MTT
  IC50: 16.2 nM
[3]; Homo sapiens, PC-9, Osimertinib-resistant PC9 cells, read-out: IC50
  IC50: 5200 nM
[3]; Homo sapiens, PC-9, PC9-OSIMR, read-out: IC50 MTT
  IC50: 5250 nM
[3]; Osimertinib-resistant vs parental PC9 cells
  fold reduction in sensitivity: 325 fold
[4]; Homo sapiens, PC-9
  IC50: 16.1 nM
[5]
  IC50: 4930 nM

## CCOc1ccc(CCCN2CCC(CC(=O)N[C@@H](Cc3cccc(OC)c3)C(=O)OC)CC2)cc1 [SR7-042]
[1]
  IC50: 1400 nM

## COC(=O)[C@H](Cc1ccc(OCc2ccccc2)cc1)NC(=O)CC1CCN(CCCc2ccc(Cl)c(Cl)c2)CC1 [SR6-086]
[1]
  IC50: 1850 ± 890 nM

## O=C(CC1CCN(CCCc2ccc(Cl)c(Cl)c2)CC1)Nc1ccc(OCc2ccccc2)cc1 [SR7-053]
[2]; PC9, read-out: IC50 MTT
  IC50: 1160 nM
[3]; PC9-OSIMR, read-out: IC50 MTT
  IC50: 3900 nM
[4]
  IC50: 865 nM
[5]
  IC50: 3350 nM
[1]
  IC50: 564 nM
